The nature of assay [1]: Inhibitory activity (RA2) against Prostaglandin G/H synthase 2 was calculated relative to aspirin.
Assay [2] is described as follows: Inhibitory activity (RA1) against Prostaglandin G/H synthase 1 was calculated relative to aspirin.

These results are taken from BindingDB's records for doi:10.1016/s0960-894x(02)00084-7 (The University of Tokyo, 2002).

Consider `O=C1CCC(N2C(=O)c3ccccc3C2=O)C(=O)N1` (racemic) [(+/-)-thalidomide], for which the relative activity vs aspirin is 0.5 in assay [1] and 0.37 in assay [2]. Regarding `Cc1cc(C)c(C)c(N2C(=O)c3ccccc3C2=O)c1C` [2-(2,3,5,6-Tetramethyl-phenyl)-isoindole-1,3-dione], the relative activity vs aspirin in assay [1] is 0.67; in assay [2] it was 0.2. For `Cc1cc(C)c(C)c(N2C(=O)c3ccccc3C2=O)c1` [2-(2,3,5-Trimethyl-phenyl)-isoindole-1,3-dione], the relative activity vs aspirin is 1.18 in assay [1] and 0.33 in assay [2]. As to `O=C1c2ccccc2C(=O)N1c1c[nH]c(=O)[nH]c1=O` [2-(2,4-Dioxo-1,2,3,4-tetrahydro-pyrimidin-5-yl)-isoindole-1,3-dione], the relative activity vs aspirin is 3.81 in assay [1] and 0.44 in assay [2].

Consider `O=C1CCN(N2C(=O)c3ccccc3C2=O)C(=O)N1` [2-(2,4-Dioxo-tetrahydro-pyrimidin-1-yl)-isoindole-1,3-dione], for which the relative activity vs aspirin in assay [1] is 0.9; in assay [2], 0.6. For `O=C1NCCCC1N1C(=O)c2ccccc2C1=O` (centres undefined) [2-(2-Oxo-piperidin-3-yl)-isoindole-1,3-dione], the relative activity vs aspirin in assay [1] is 1.21; in assay [2], 0.85. As to `Cc1cc(C)cc(-n2c(O)cc3ccccc3c2=O)c1` [2-(3,5-Dimethyl-phenyl)-4H-isoquinoline-1,3-dione], the relative activity vs aspirin in assay [1] was 38.5; in assay [2] it was 95.2. Take `Cc1cc(C)cc(N2C(=O)c3ccccc3C2=O)c1` [2-(3,5-Dimethyl-phenyl)-isoindole-1,3-dione]: the relative activity vs aspirin is 13.2 in assay [1] and 7.4 in assay [2]. With `COc1cc(OC)nc(-n2c(O)cc3ccccc3c2=O)n1` [2-(4,6-Dimethoxy-pyrimidin-2-yl)-4H-isoquinoline-1,3-dione], the relative activity vs aspirin is 3.57 in assay [1] and 10.2 in assay [2].

On to `Cc1cc(C)nc(-n2c(O)cc3ccccc3c2=O)c1` [2-(4,6-Dimethyl-pyridin-2-yl)-4H-isoquinoline-1,3-dione], for which the relative activity vs aspirin in assay [1] is 6.67; in assay [2], 12.5. The corresponding values for `Cc1cc(C)nc(-n2c(O)cc3ccccc3c2=O)n1` [2-(4,6-Dimethyl-pyrimidin-2-yl)-4H-isoquinoline-1,3-dione] are 8.33 and 3.85. Turning to `COc1cc(C)nc(-n2c(O)cc3ccccc3c2=O)n1` [2-(4-Methoxy-6-methyl-pyrimidin-2-yl)-4H-isoquinoline-1,3-dione], the values for the relative activity vs aspirin in assay [1] and in assay [2] were 10 and 21.7, respectively.

`C[C@@]1(N2C(=O)c3cccc([N+](=O)[O-])c3C2=O)CCC(=O)NC1=O` [2-((R)-3-Methyl-2,6-dioxo-piperidin-3-yl)-4-nitro-isoindole-1,3-dione]: the relative activity vs aspirin in assay [1] is 0.1; in assay [2], 0.4. For the compound `C[C@@]1(N2C(=O)c3ccc([N+](=O)[O-])cc3C2=O)CCC(=O)NC1=O` [2-((R)-3-Methyl-2,6-dioxo-piperidin-3-yl)-5-nitro-isoindole-1,3-dione], the relative activity vs aspirin in assay [1] is 1.51; in assay [2] it was 0.54. The corresponding values for `C[C@@]1(N2C(=O)c3ccccc3C2=O)CCC(=O)NC1=O` [2-((R)-3-Methyl-2,6-dioxo-piperidin-3-yl)-isoindole-1,3-dione] are 0.73 and 0.29. For the compound `O=C1c2ccccc2C(=O)N1CCn1ccc(=O)[nH]c1=O` [2-[2-(2,4-Dioxo-3,4-dihydro-2H-pyrimidin-1-yl)-ethyl]-isoindole-1,3-dione], the figures for the relative activity vs aspirin in assay [1] and in assay [2] were 0.65 and 1.23, respectively. For the compound `C[C@@]1(N2C(=O)c3cccc(N)c3C2=O)CCC(=O)NC1=O` [4-Amino-2-((R)-3-methyl-2,6-dioxo-piperidin-3-yl)-isoindole-1,3-dione], the relative activity vs aspirin in assay [2] is 0.17. `C[C@@]1(N2C(=O)c3ccc(N)cc3C2=O)CCC(=O)NC1=O` [5-Amino-2-((R)-3-methyl-2,6-dioxo-piperidin-3-yl)-isoindole-1,3-dione]: in assay [2], the relative activity vs aspirin is 0.12.
